The text below walks through data of paper PMC4648803 (Purinergic Signalling, 2015).

“And” between values parts separate entries of the source, which are not always exact repeats. Identical values can stand only once.

Test [1] concerns the target T1, hA1AR (Homo sapiens, UniProt P30542).
T1 sequence (P30542 1-326): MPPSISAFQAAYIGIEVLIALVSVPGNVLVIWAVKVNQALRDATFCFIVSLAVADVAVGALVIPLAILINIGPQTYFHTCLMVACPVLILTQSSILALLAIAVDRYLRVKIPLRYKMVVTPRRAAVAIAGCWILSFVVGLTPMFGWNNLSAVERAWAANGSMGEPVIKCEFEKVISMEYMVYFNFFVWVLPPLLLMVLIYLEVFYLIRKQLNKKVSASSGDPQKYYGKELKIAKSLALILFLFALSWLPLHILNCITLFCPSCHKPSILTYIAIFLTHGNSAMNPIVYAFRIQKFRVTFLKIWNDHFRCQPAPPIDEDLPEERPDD
To be noted: saturation on hA1AR; cited from earlier work.

Test [2] deals with T1, hA1AR. To be noted: saturation on CHO-hA1AR membranes, M/IS.
Protocol: Dilutions were prepared with a HP D300 Digital Dispenser (Tecan Group, Männerdorf, Swiss) from DMSO stocks.
The target of test [3] is T1, hA1AR. Set-up: expressed in transfected cells; host or cells: CHO cells stably expressing hA1AR (membrane preparation); gift from Prof; S. Hill, University of Nottingham; method as in PMID 23093571. The following applies: competition association, apparent value; cited from earlier work.
The target in test [4] is T1, hA1AR. Kind of test: MS binding competition association assay (marker ligand DPCPX). To be noted: for shape of competition association curve: 6 nM DPCPX, 250 nM competing ligand. The arrangement: expressed in transfected cells; host or cells: CHO cells stably expressing hA1AR (membrane preparation); gift from Prof; S. Hill, University of Nottingham. On the procedure:
. […] Non-specific binding was determined as described under “MS binding displacement assays.”

Test [5] concerns the target T1, hA1AR. In words: biochemical. The following applies: K i ± SEM, MS binding, 6 nM DPCPX marker, overall (one-state) value.
Protocol: (§3) Ligand displacement experiments were performed using nine concentrations of competing ligand.
In test [6] the target is T1, hA1AR. Kind of test: biochemical. The following applies: K i ± SEM, Radioligand binding, overall (one-state) value, newly acquired. On the procedure:
(§1) The reference radioligand binding data were published before by our lab or were acquired as described before.
(§2) For the validation of MS binding assays, radioligand binding data that was published previously by our group was used. In the case that no in-house radioligand binding data was available, the concerning assays were performed following previously established protocols.

For test [7], the target named is T1, hA1AR. Kind of test: Radioligand binding competition association assay. To be noted: newly acquired. Set-up: expressed in transfected cells; host or cells: CHO cells stably expressing hA1AR (membrane preparation); gift from Prof; S. Hill, University of Nottingham. The protocol: as §1, §2
In test [8] the target is T2, hA2AAR (Homo sapiens, UniProt P29274).
T2 construct: expressed in transfected cells; host or cells: HEK293 cells stably expressing hA2AAR (membrane preparation); gift from Dr. J. Wang, Biogen/IDEC
Kind of test: MS binding competition association assay (marker ligand ZM-241,385).

Test [9] has as its target T2, hA2AAR. Kind of test: MS binding displacement assay (marker ligand ZM-241,385). To be noted: 3 nM ZM-241,385 marker, read-out: K i ± SEM, MS binding.
Protocol: as §3
Test [10] has as its target T2, hA2AAR. Kind of test: Radioligand binding displacement assay. To be noted: newly acquired, read-out: K i ± SEM, Radioligand binding. On the procedure:
as §1, §2

Test [11] concerns the target T2, hA2AAR. In words: Radioligand binding competition association assay. To be noted: newly acquired. On the procedure:
as §1, §2

Setting [12] is: competition association with 3 nM ZM-241,385, with internal standard.
Where [13] appears, read: competition association with 3 nM ZM-241,385, without internal standard.

T2 sequence (P29274 whole entry): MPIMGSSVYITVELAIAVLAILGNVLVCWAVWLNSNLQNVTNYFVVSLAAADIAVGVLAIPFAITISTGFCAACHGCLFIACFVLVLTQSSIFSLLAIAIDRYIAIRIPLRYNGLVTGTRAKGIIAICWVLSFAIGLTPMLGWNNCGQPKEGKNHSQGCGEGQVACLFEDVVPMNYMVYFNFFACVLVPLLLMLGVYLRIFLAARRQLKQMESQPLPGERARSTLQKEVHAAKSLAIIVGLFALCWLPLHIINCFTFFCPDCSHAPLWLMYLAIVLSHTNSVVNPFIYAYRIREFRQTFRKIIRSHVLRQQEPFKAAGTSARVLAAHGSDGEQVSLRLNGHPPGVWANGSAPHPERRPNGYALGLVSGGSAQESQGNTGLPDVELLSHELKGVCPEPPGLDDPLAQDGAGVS

`CCCn1c(=O)c2[nH]c(C3CCCC3)nc2n(CCC)c1=O` [DPCPX, 1,3-dipropyl-8-cyclopentyl-xanthine]: in test [1], the “B max, Radioligand binding” value is 14 ± 1 pmol/mg protein and 14 ± 1 [29] pmol/mg protein. The “B max, MS binding” value in test [2] is 17.3 ± 0.3 pmol/mg protein.

Take `CCCn1c(=O)c2[nH]c(C3CCCC3)nc2n(CCCOC(=O)c2ccc(S(=O)(=O)F)cc2)c1=O` [FSCPX]: in test [3], the “k on ± SEM, Radioligand binding” value is 3.7 ± 1.0 × 10^6 [29] M^−1 min^−1. In addition, the “shape of competition association curve” value in test [4] (hA1AR) was “typical for slowly dissociating ligands”. Moreover, in test [4] (hA1AR, 250 nM FSCPX, after 120 min), the “displacement of the marker ligand DPCPX” value was “completely”. Further, the “k on ± SEM, MS binding (M/IS)” value in [4] (hA1AR, competition association with 6 nM DPCPX, with internal standard, apparent value for covalently binding FSCPX) is on record as 0.7 ± 0.2 × 10^6 M^−1 min^−1. The “k on ± SEM, MS binding (marker)” value in test [4] (hA1AR, competition association with 6 nM DPCPX, without internal standard, apparent value for FSCPX) was 0.7 ± 0.2 × 10^6 M^−1 min^−1.

On to `Cn1c(=O)c2[nH]c(C3CCCC3)nc2n(C)c1=O` [8-CPT, 8-Cyclopentyltheophylline], for which the Ki is 43 ± 11 nM in [5] and 31 ± 1 nM in test [6]. Moreover, the “shape of competition association curve” value in test [4] (hA1AR) was “typical for fast-dissociating ligands”. Further, the koff is 0.0233 s⁻¹ in test [4] (read-out: k off ± SEM, MS binding (M/IS) (converted)); 0.02 s⁻¹ in [4] (read-out: k off ± SEM, MS binding (marker) (converted)); 0.0183 s⁻¹ in test [7] (read-out: k off ± SEM, Radioligand binding (converted)). Further, the kon is 833000 M⁻¹ s⁻¹ in [4] (read-out: k on ± SEM, MS binding (M/IS) (converted)); 500000 M⁻¹ s⁻¹ in [4] (read-out: k on ± SEM, MS binding (marker) (converted)); 1e+06 M⁻¹ s⁻¹ in test [7] (read-out: k on ± SEM, Radioligand binding (converted)).

For the compound `C#CCn1c(=O)c2c(nc(C=Cc3cccc(OC)c3)n2C)n(CCCO)c1=O` [MSX-2, 3-(3-Hydroxypropyl)-7-methyl-1-propargyl-8-(m-methoxystryryl)xanthine], the “shape of competition association curve” value in [8] (3 nM ZM-241,385, 90 nM MSX-2 or 15 nM LUF6632) is recorded as “typical for fast-dissociating ligands”. Also, in [8] (setting [12]), the “k off ± SEM, MS binding (M/IS)” value was 0.00045 ± 8.3e-05 s⁻¹ and the “k on ± SEM, MS binding (M/IS)” value is listed as 5.4 ± 0.6 × 10^6 M^−1 min^-1. For the same compound, in test [8] (setting [13]), the “k off ± SEM, MS binding (marker)” value worked out at 0.00105 ± 0.000367 s⁻¹ and the “k on ± SEM, MS binding (marker)” value is reported as 9.3 ± 1.3 × 10^6 M^−1 min^-1. The Ki in [9] was found to be 9 ± 0.3 nM. Moreover, the Ki in test [10] turned out to be 5.7 ± 0.1 nM. In test [11], the “k off ± SEM, Radioligand binding” value came out at 0.000433 ± 6.7e-05 s⁻¹ and the “k on ± SEM, Radioligand binding” value is recorded as 2.4 ± 0.2 × 10^6 M^−1 min^-1.
